Series [1] can be described thus: Aqueous equilibrium solubility in citric acid/disodium phosphate buffer at pH 6.8 at 1 uM after 24 hrs by HPLC method. The format is physicochemical. Conditions: for solubility thermodynamic at 24 h, 1 µM: citric acid/disodium phosphate buffer, pH 6.8.
Series [2] has as its target T1, hERG (KCNH2) (Homo sapiens, UniProt Q12809). Briefly: Inhibition of human ERG expressed in CHO cells at 42 uM at -70mV holding potential measured after 300 secs by IonWorks electrophysiology method relative to control. It counts as cell-based. Conditions: CHO cells expressing human ERG.
Series [3] is described as follows: Aqueous kinetic solubility of the compound at pH 7.4. It counts as physicochemical. To be noted: for Kinetic_solubility: buffer; for solubility kinetic: aqueous, read-out: Kinetic_solubility.
The nature of series [4]: Stability in human liver microsomes at 1 uM pretreated for 10 mins followed by NADPH addition after 60 mins by LC/MS analysis relative to hepatic blood flow. To be noted: read-out: Stability. The format is ADME, microsome.
Series [5] addresses T2, Arachidonate 5-lipoxygenase-activating protein (Homo sapiens, UniProt P20292).
T2 sequence (P20292 whole entry): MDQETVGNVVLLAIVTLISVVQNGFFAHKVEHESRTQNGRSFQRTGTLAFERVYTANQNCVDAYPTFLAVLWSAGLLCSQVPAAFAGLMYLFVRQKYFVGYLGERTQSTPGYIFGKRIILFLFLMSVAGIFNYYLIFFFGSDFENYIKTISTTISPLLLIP
Kind of series: Displacement of [125I]-L-691831 from human FLAP expressed in Sf9 cell membranes after 2 hrs by Topcount method.

For series [6], the target named is T2, Arachidonate 5-lipoxygenase-activating protein. Briefly: Inhibition of FLAP in calcimycin-stimulated human whole blood assessed as reduction in LTB4 production pretreated for 15 mins followed by calcimycin addition after 30 mins by ELISA. Background: ELISA stands for enzyme-linked immunosorbent assay.
Series [7] deals with T1, hERG (KCNH2). Briefly: Inhibition of human ERG expressed in CHO cells at 9 uM at -70mV holding potential measured after 300 secs by IonWorks electrophysiology method relative to control. The format is cell-based. To be noted: CHO cells expressing human ERG. For orientation: In patch-clamp work, channel activity is measured electrically.
Series [8] concerns the target T1, hERG (KCNH2). Kind of series: Inhibition of human ERG expressed in CHO cells at 17 uM at -70mV holding potential measured after 300 secs by IonWorks electrophysiology method relative to control. It counts as cell-based. Conditions: CHO cells expressing human ERG.
For series [9], the target named is T3, Arachidonate 5-lipoxygenase-activating protein (Homo sapiens) (UniProt P20292).
T3 sequence (whole entry): T2 sequence (P20292 whole entry)
Kind of series: Ratio of IC50 for FLAP in calcimycin-stimulated human whole blood to IC50 for displacement of [125I]-L-691831 from human FLAP expressed in Sf9 cell membranes. For orientation: In a radioligand displacement assay an active substance lowers the binding of a labelled ligand.

Series [10] has as its target T1, hERG (KCNH2). Kind of series: Inhibition of human ERG expressed in CHO cells at 10 uM at -70mV holding potential measured after 300 secs by IonWorks electrophysiology method relative to control. To be noted: CHO cells expressing human ERG. The format is cell-based.
Series [11] is described as follows: Clearance in human hepatocytes at 1 uM measured after 1 hr by LC/MS analysis relative to hepatic blood flow. It counts as ADME, cell-based, Hepatocyte.
Series [12] concerns the target T1, hERG (KCNH2). Kind of series: Inhibition of human ERG expressed in CHO cells at 41 uM at -70mV holding potential measured after 300 secs by IonWorks electrophysiology method relative to control. The format is cell-based. To be noted: CHO cells expressing human ERG.
In series [13] the target is T1, hERG (KCNH2). Briefly: Inhibition of human ERG expressed in CHO cells at 33 uM at -70mV holding potential measured after 300 secs by IonWorks electrophysiology method relative to control. It counts as cell-based. To be noted: CHO cells expressing human ERG.
Series [14] has as its target T1, hERG (KCNH2). Briefly: Inhibition of human ERG expressed in CHO cells at 21 uM at -70mV holding potential measured after 300 secs by IonWorks electrophysiology method relative to control. It counts as cell-based. Conditions: CHO cells expressing human ERG.
Series [15] has as its target T1, hERG (KCNH2). Briefly: Inhibition of human ERG expressed in CHO cells at 12 uM at -70mV holding potential measured after 300 secs by IonWorks electrophysiology method relative to control. It counts as cell-based. Conditions: CHO cells expressing human ERG.
Series [16] concerns the target T1, hERG (KCNH2). Kind of series: Inhibition of human ERG expressed in HEK293 cells at 37 uM by whole-cell patch clamp method relative to control. To be noted: HEK293 cells expressing human ERG. It counts as cell-based.
Series [17] addresses T1, hERG (KCNH2). Kind of series: Inhibition of human ERG expressed in HEK293 cells at 30 uM by whole-cell patch clamp method relative to control. It counts as cell-based. Conditions: HEK293 cells expressing human ERG.
The target of series [18] is T1, hERG (KCNH2). Kind of series: Inhibition of human ERG expressed in CHO cells at 16 uM at -70mV holding potential measured after 300 secs by IonWorks electrophysiology method relative to control. The format is cell-based. To be noted: CHO cells expressing human ERG.
In series [19] the target is T1, hERG (KCNH2). Kind of series: Inhibition of human ERG expressed in CHO cells at 13 uM at -70mV holding potential measured after 300 secs by IonWorks electrophysiology method relative to control. It counts as cell-based. To be noted: CHO cells expressing human ERG.

What is called thermodynamic solubility is the concentration in solution at equilibrium with solid. In general, inhibition refers to the change of the read-out against control, counted positive when it falls. Low values mean little suppression, high ones strong suppression. One may read the IC50 as the midpoint of a concentration-inhibition curve.

SMILES strings stand for the structures. ≈ marks a conversion by molar mass, not a printed value.

T1 sequence (Q12809 whole entry): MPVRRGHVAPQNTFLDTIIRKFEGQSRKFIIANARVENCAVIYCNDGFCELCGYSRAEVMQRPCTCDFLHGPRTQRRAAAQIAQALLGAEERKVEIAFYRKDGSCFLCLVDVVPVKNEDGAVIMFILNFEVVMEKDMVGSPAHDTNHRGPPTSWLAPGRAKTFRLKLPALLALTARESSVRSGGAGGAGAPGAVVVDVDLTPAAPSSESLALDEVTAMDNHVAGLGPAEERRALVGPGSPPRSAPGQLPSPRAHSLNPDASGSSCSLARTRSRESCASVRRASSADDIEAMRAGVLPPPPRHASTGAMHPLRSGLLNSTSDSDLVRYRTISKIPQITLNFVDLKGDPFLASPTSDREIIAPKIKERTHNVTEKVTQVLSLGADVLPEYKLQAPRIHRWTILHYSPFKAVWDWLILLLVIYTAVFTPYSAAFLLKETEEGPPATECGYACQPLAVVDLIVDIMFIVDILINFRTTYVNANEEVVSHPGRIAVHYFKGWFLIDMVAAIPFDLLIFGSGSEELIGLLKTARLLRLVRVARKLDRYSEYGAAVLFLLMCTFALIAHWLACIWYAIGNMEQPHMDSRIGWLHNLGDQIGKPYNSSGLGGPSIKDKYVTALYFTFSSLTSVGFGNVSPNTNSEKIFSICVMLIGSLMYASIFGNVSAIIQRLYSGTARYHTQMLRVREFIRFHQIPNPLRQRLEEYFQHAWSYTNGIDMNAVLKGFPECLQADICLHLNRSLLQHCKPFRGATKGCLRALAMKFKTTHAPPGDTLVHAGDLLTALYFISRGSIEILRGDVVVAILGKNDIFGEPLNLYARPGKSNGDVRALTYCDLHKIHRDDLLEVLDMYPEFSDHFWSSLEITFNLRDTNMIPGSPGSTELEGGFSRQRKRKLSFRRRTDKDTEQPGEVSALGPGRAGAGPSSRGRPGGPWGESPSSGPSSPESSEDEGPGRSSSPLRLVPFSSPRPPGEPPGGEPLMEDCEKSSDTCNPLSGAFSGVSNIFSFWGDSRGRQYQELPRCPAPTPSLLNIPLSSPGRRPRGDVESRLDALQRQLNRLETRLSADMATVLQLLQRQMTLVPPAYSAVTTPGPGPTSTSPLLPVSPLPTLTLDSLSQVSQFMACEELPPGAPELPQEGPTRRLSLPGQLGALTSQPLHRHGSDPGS

In the case of `CC(C)(O)Cn1cc(-c2nc([C@@](C)(c3ccc(-c4cnc(N)nc4)nc3)C3CC3)no2)cn1`, the thermodynamic solubility at 24 h, 1 µM in series [1] worked out at 26 µg/mL (≈ 58.2 µM). In addition, the inhibition at 5 min, 42 µM against hERG (KCNH2) [2] was 34%. For the same molecule, the Kinetic_solubility result in [3] was “Soluble”.
`CN(c1cnn(C)c1)c1nc([C@@](C)(c2ccc(-c3cnc(N)nc3)cc2)C2CC2)no1`: the hepatic extraction ratio at 1 h, 1 µM in [4] worked out at 0.34. For the same molecule, in [1] (buffer, pH 6.8, 24 h, 1 µM), the solubility result is reported as “Soluble”. The 50% inhibitory concentration (IC50) in [5] was found to be 29 nM; in [6] it was 92 nM. In addition, the inhibition at 5 min, 9 µM against hERG (KCNH2) [7] came to 45%. Also, in series [3], the Kinetic_solubility result was “Soluble”.
As to `Nc1ncc(-c2ccc(C3(c4noc(N5CCC(O)CC5)n4)CCC3)cc2)cn1`, in series [4], the hepatic extraction ratio at 1 h, 1 µM is below 0.24. Moreover, the inhibition at 5 min, 17 µM at hERG (KCNH2) [8] turned out to be 40%. In addition, in series [6], the IC50 worked out at 118 nM. For the same molecule, the Ratio IC50 in series [9] was 7. Also, in [3], the solubility kinetic is above 39 µg/mL.
Turning to `Cn1cc(-c2nc([C@@](C)(c3ccc(-c4cnc(N)nc4)nc3)C3CC3)no2)cn1`, the inhibition at 5 min, 10 µM against hERG (KCNH2) [10] turned out to be 13%. The hepatic extraction ratio at 1 h, 1 µM in series [4] was below 0.3; in series [11], 0.59. In addition, the IC50 in [5] was 3 nM; in series [6], 26 nM.
For `C[C@@](c1ccc(-c2cnc(N)nc2)nc1)(c1noc(N2CCC(O)CC2)n1)C1CC1`, the IC50 came to 434 nM in series [5] and 324 nM in series [6]. Besides, on hERG (KCNH2) [12], the inhibition at 5 min, 41 µM was determined as 17%.
`Nc1ncc(-c2ccc(C3(c4noc(N5CCCCC5)n4)CCC3)cc2)cn1` had an inhibition at 5 min, 33 µM against hERG (KCNH2) [13] of 92%. For the same molecule, the IC50 in series [6] is 387 nM. Besides, the Ratio IC50 in [9] came to 59. Besides, in [3], the solubility kinetic stood at 4.1 µg/mL (≈ 10.9 µM).
Consider `CC1(O)CCN(c2nc([C@@](C)(c3ccc(-c4cnc(N)nc4)cc3)C3CC3)no2)CC1`, for which the inhibition at 5 min, 21 µM at hERG (KCNH2) [14] stood at 31%. Also, in series [4], the hepatic extraction ratio at 1 h, 1 µM worked out at 0.58. The IC50 in series [5] is 5.6 nM; in series [6], 13 nM.
At hERG (KCNH2) [15], `Nc1ncc(-c2ccc(C3(c4noc(N5CC(O)C5)n4)CCC3)cc2)cn1` displayed an inhibition at 5 min, 12 µM of 18%. For the same molecule, the hepatic extraction ratio at 1 h, 1 µM in [4] is below 0.24. Moreover, the values for the IC50 in [5] and in series [6] were 160 nM and 315 nM, respectively. The Ratio IC50 in series [9] came out at 2. In series [3], the solubility kinetic was above 36 µg/mL.
Take `CC(C)[C@](C)(c1ccc(-c2cnc(N)nc2)nc1)c1noc(-c2cnn(CC#N)c2)n1`: the hepatic extraction ratio at 1 h, 1 µM in series [4] was below 0.24; in series [11] it was 0.31. Moreover, the IC50 was 23 nM in series [5] and 40 nM in [6]. The inhibition at 37 µM on hERG (KCNH2) [16] worked out at 38%.
Take `CC(C)[C@](C)(c1ccc(-c2cnc(N)nc2)nc1)c1noc(-c2cnn(C3COC3)c2)n1`: at hERG (KCNH2) [17], at 30 µM the inhibition was 24%. Besides, the hepatic extraction ratio at 1 h, 1 µM was below 0.3 in [4] and 0.34 in series [11]. Also, the solubility (thermodynamic) at 24 h, 1 µM in series [1] was found to be 84 µg/mL (≈ 194 µM). In addition, the IC50 in series [5] was 6.6 nM; in series [6], 37 nM. The Kinetic_solubility entry in series [3] is given as “Soluble”.
With `CC1(O)CCN(c2nc(C3(c4ccc(-c5cnc(N)nc5)cc4)CCC3)no2)CC1`, the hepatic extraction ratio at 1 h, 1 µM in series [4] is 0.29. At hERG (KCNH2) [18], the inhibition at 5 min, 16 µM worked out at 45%. Further, the values for the IC50 in series [5] and in series [6] were 17 nM and 87 nM, respectively. Besides, the solubility kinetic in series [3] is above 40 µg/mL.
In the case of `Nc1ncc(-c2ccc(C3(c4noc(N5CCC(CO)CC5)n4)CCC3)cc2)cn1`, the inhibition at 5 min, 13 µM on hERG (KCNH2) [19] was 68%. In series [4], the hepatic extraction ratio at 1 h, 1 µM came to 0.36. For the same molecule, the IC50 in [5] came out at 46 nM; in series [6] it was 173 nM. In addition, the solubility kinetic in series [3] was found to be 14 µg/mL (≈ 34.4 µM).

The values are drawn from ChEMBL document CHEMBL4043239, “Discovery and optimization of oxadiazole-based FLAP inhibitors” (Bioorg Med Chem Lett, 2017).
